Measurements taken from patent publication US11311568B2, “Therapeutic pharmaceutical composition for cancer including miRNA” (Purmx Therapeutics, Inc., priority 2017, dated 2022).

How the values were obtained:
[1] = system: pancreatic cancer cell strain BxPC-3; experiment: Screening in cancer cell strains, cell survival rate with PrestoBlue; assay type: cell-based; settings: BxPC-3, Day 5 after transfection with RNAiMAX, compared with miR-34a-5p
Procedure: (§1) The 349 types of aging induction miRNA (mirVana; Ambion) obtained from screening were transfected into various cancer cell strains (large intestine cancer cell strain HCT116 (p53 wildtype and p53 deletion), pancreatic cancer cell strains BxPC-3 and CFPAC-1, and tongue cancer cell strain HSC-4) with an auto dispenser Bravo (Agilent).
(§2) Transfection was carried out with the following protocol.
(§3) 1: To 70 μL of serum free medium (SFM) was added 0.35 μL of RNAiMAX (Invitrogen).
(§4) 2: The solution from 1 was added to a 96-well plate (μ-plate; ibidi) with Bravo.
(§5) 3: To 2 was added 0.7 μL of miRNA (Stock Conc. 200 nM) with Bravo, and this was mixed by pipetting.
(§6) 4: This was incubated at room temperature for 20 minutes.
(§7) 5: A cell suspension diluted to 3.5×10^4 cells/mL was dispensed at 70 μL each with Bravo.
(§8) 6: This was incubated at 37° C. under 5% CO2 condition.
(§9) Setting the day of transfection as Day 0, on Day 5 the cell survival rate was evaluated with PrestoBlue (Invitrogen). The operating protocol is shown below.
(§10) 1. The medium was exchanged to a medium comprising PrestoBlue diluted 20-folds, and this was incubated at 37° C. for 1 hour. 2. The fluorescence value (Ex/Em=560 nm/590 nm) was measured with Enspire (Perkin Elmer).
(§11) 3. The cell survival rate was determined by setting the fluorescence value obtained from the well with only the reagent as the background.

[2] = system: large intestine cancer cell strain HCT116 (p53 wildtype); experiment: as above; assay type: cell-based; settings: Day 5 after transfection with RNAiMAX, compared with miR-34a-5p
Procedure: as §1, §2, §3, §4, §5, §6, §7, §8, §9, §10, §11

[3] = system: tongue cancer cell strain HSC-4; experiment: as above; assay type: cell-based; settings: HSC-4, Day 5 after transfection with RNAiMAX, compared with miR-34a-5p
Procedure: as §1, §2, §3, §4, §5, §6, §7, §8, §9, §10, §11

[4] = system: pancreatic cancer cell strain CFPAC-1; experiment: as above; assay type: cell-based; settings: CFPAC-1, Day 5 after transfection with RNAiMAX, compared with miR-34a-5p
Procedure: as §1, §2, §3, §4, §5, §6, §7, §8, §9, §10, §11

[5] = system: large intestine cancer cell strain HCT116 (p53 deletion); experiment: as above; assay type: cell-based; settings: Day 5 after transfection with RNAiMAX, compared with miR-34a-5p
Procedure: as §1, §2, §3, §4, §5, §6, §7, §8, §9, §10, §11

[6] = system: malignant pleural mesothelioma cells EHMES-10; experiment: Antitumor effect in vivo, subcutaneous transplantation of EHMES-10 cells; design: species or system SCID mouse; settings: SCID mice, EHMES-10 subcutaneous, 13 administrations
Procedure: Malignant pleural mesothelioma cells EHMES-10 cells were used.
1: The cells on the dish were washed twice with PBS (-).
2: The cells were detached with trypsin.
3: This was suspended in a medium, and cells were counted.
4: Centrifugation at a condition of 1000 rpm for 3 min was performed to pellet down.
5: The cells were resuspended in PBS (-) in order to obtain 2.0×10^7 cells/mL.
Six weeks-old C-B-17/Icr-scid/scid Jcl (SCID mouse) were used as mice. SCID mice were subcutaneously administered 100 μL of the prepared cell suspension, and the cells were allowed to settle.
Negative control which is the control sequence and miR-3140-3p which is the miRNA of the present invention were employed. A6K (from 3D Matrix) was employed as the nucleic acid delivery reagent. The administration of miRNA to mice was carried out with the following protocol.
1: 100 μM of the nucleic acid (miRNA) was diluted with 10% saline and sterilized water in order to obtain 71.4 μM.
2: 1% A6K solution was sonicated for 5 minutes before use.
3: The diluted nucleic acid and the 1% A6K solution were mixed at a proportion of 1:1 to give the administration nucleic acid.
4: SCID mice were subcutaneously administered (tumor site) 50 μL each of the administration nucleic acid.
1: From two days after transplantation, the nucleic acid was administered every one or two days. […]

miR-3140-3p: Mature-miRNA, AGCUUUUGGGAAUUCAGGUAGU (SEQ ID NO. 2) (listed as RNA, chemistry not given here; listed as Homo sapiens)
suppression of cell proliferation (cell survival rate, PrestoBlue) [1]: suppress cell proliferation more significantly than miR-34-5p
suppression of cell proliferation (cell survival rate, PrestoBlue) [2]: suppress cell proliferation more significantly than miR-34-5p
suppression of cell proliferation (cell survival rate, PrestoBlue) [3]: suppress cell proliferation more significantly than miR-34-5p
suppression of cell proliferation (cell survival rate, PrestoBlue) [4]: suppress cell proliferation more significantly than miR-34-5p
suppression of cell proliferation (cell survival rate, PrestoBlue) [5]: suppress cell proliferation more significantly than miR-34-5p
tumor weight at endpoint compared to the control group ([6]; 33 days after transplantation, FIG. 16): a similar result
expansion of the tumor (luciferin imaging) compared to the control group ([6]; miRNA with A6K at tumor site, imaging at 12, 19, 26, 33 days, FIGS. 14-15): expansion of the tumor was suppressed
